Residues, ends and D or L forms follow the SMILES beside them.
Target: IL-17RA/IL17RC dimerization induced by IL-17A (Homo sapiens, UniProt Q16552)
Experiment: IL-17RA/IL17RC dimerization assay in response to IL-17A (PathHunter Cytokine Receptor Assay)
Format: cell-based
Settings: IL-17A at EC80; read-out: IC50 in IL-17RA/IL7RC dimerization assay
Procedure: The peptides of Table 7 were tested for their ability to inhibit the binding of IL-17A to its receptor and the subsequent interaction of IL-17RA and IL17RC.
Interleukin receptor RA and RC dimerization assay (DiscoverX) was used to measure the interaction of the receptor chains IL-17RA and IL17RC upon activation by IL-17A in the absence or presence of the peptides of Table 7.
In the PathHunter® Cytokine Receptor Assay, one cytokine receptor chain is tagged with a small peptide epitope ProLink (PK) and the other chain is tagged with Enzyme Acceptor (EA). Ligand binding induces dimerization of the two receptors, facilitating complementation of PK and EA fragments. This interaction generates an active unit of b-galactosidase, which is detected using a chemiluminescent substrate. PathHunter cell lines were expanded from freezer stocks according to standard procedures. Cells were seeded in a total volume of 20 μL into white walled, 384-well microplates and incubated for the appropriate time prior to testing. For agonist activity inhibition, cells were incubated with sample to induce response. Intermediate dilution of sample stocks was performed to generate 5× sample in assay buffer. 5 μL of 5× sample was added to cells and incubated at 37° C. or room temperature for 60 minutes. Vehicle concentration was 1%. 5 μL of 6×EC80 agonist (IL-17A) in assay buffer was added to the cells and incubated at 37° C. for 6 to 16 hours depending on the assay. 1. […] For some assays, activity was detected using a high sensitivity detection reagent (PathHunter Flash Kit) to improve assay performance. In these assays, an equal volume of detection reagent (25 or 30 uL) was added to the wells, followed by a one hour incubation at room temperature. Microplates were read following signal generation with a PerkinElmer Envision™ instrument for chemiluminescent signal detection. Compound activity was analyzed using CBIS data analysis suite (ChemInnovation, CA). % Inhibition=100%×(1−(mean RLU of test sample−mean RLU of vehicle control)/(mean RLU of EC80 control−mean RLU of vehicle control)).

Sequence of IL-17RA/IL17RC dimerization induced by IL-17A (Q16552 24-155): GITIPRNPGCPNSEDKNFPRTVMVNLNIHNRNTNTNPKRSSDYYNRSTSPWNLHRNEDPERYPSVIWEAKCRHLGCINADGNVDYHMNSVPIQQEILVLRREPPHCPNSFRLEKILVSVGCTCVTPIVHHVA

| Structure (SMILES) | IC50 [nM] |
| --- | --- |
| CCCCCCCCCC(=O)N[C@H](C(=O)N[C@@H](CCSC)C(=O)N[C@H](C(=O)N[C@H](C(=O)N[C@H](C(=O)N1CCC[C@H]1C(=O)N[C@@H](C)C(=O)N[C@@H](CC(=O)O)C(=O)N[C@@H](CC(C)C)C(=O)N[C@@H](Cc1ccc(O)cc1)C(=O)N[C@@H](CCC(=O)O)C(=O)N[C@@H](Cc1c[nH]c2ccccc12)C(=O)N[C@H](C(=O)N[C@@H](CCC(=O)O)C(=O)N[C@@H](CCC(=O)O)C(N)=O)[C@@H](C)CC)[C@@H](C)CC)[C@@H](C)O)C(C)C)[C@@H](C)CC [BIO-4] | < 1000 |
| CC[C@H](C)[C@H](NC(=O)[C@@H](NC(=O)[C@@H](NC(=O)[C@H](Cc1c[nH]cn1)NC(=O)[C@@H](NC(C)=O)C(C)C)C(C)C)[C@@H](C)O)C(=O)N1CCC[C@H]1C(=O)N[C@@H](C)C(=O)N[C@@H](CC(N)=O)C(=O)N[C@@H](CC(C)C)C(=O)N[C@@H](Cc1c[nH]c2ccccc12)C(=O)N[C@@H](CCC(=O)O)C(=O)N[C@@H](Cc1c[nH]c2ccccc12)C(=O)N[C@H](C(=O)N[C@@H](CCCNC(=N)N)C(=O)N[C@@H](CCCNC(=N)N)C(N)=O)C(C)C [SEQ ID NO: 116] (Ac-VHVTIPANLWEWVRR-NH2) | < 500 |
| CC[C@H](C)[C@H](NC(=O)[C@@H](NC(=O)[C@@H](NC(=O)[C@H](Cc1c[nH]cn1)NC(=O)[C@@H](NC(C)=O)C(C)C)C(C)C)[C@@H](C)O)C(=O)N1CCC[C@H]1C(=O)N[C@@H](C)C(=O)N[C@@H](CC(=O)O)C(=O)N[C@@H](Cc1ccccc1)C(=O)N[C@@H](Cc1c[nH]c2ccccc12)C(=O)N[C@@H](CCC(=O)O)C(=O)N[C@@H](Cc1c[nH]c2ccccc12)C(=O)N[C@H](C(=O)N[C@@H](CCCNC(=N)N)C(=O)N[C@@H](CCCNC(=N)N)C(N)=O)C(C)C [SEQ ID NO: 117] (Ac-VHVTIPADFWEWVRR-NH2) | < 500 |
| CC[C@H](C)[C@H](NC(=O)[C@@H](NC(=O)[C@@H](NC(=O)[C@H](Cc1c[nH]cn1)NC(=O)[C@@H](NC(C)=O)C(C)C)C(C)C)[C@@H](C)O)C(=O)N1CCC[C@H]1C(=O)N[C@@H](C)C(=O)N[C@@H](CC(=O)O)C(=O)N[C@@H](CC(C)C)C(=O)N[C@@H](Cc1c[nH]c2ccccc12)C(=O)N[C@@H](CC(N)=O)C(=O)N[C@@H](Cc1c[nH]c2ccccc12)C(=O)N[C@H](C(=O)N[C@@H](CCCNC(=N)N)C(=O)N[C@@H](CCCNC(=N)N)C(N)=O)C(C)C [SEQ ID NO: 119] (Ac-VHVTIPADLWNWVRR-NH2) | < 500 |

Further lines, results first:

| IC50 [nM] | Structure (SMILES) |
| --- | --- |
| < 1000 | CC[C@H](C)[C@H](NC(=O)[C@H](Cc1c[nH]c2ccccc12)NC(=O)[C@H](CCC(=O)O)NC(=O)[C@H](Cc1ccc(O)cc1)NC(=O)[C@H](CC(C)C)NC(=O)[C@H](CC(=O)O)NC(=O)[C@H](C)NC(=O)[C@@H]1CCCN1C(=O)[C@@H](NC(=O)[C@@H](NC(=O)[C@@H](NC(=O)[C@H](CCSC)NC(=O)[C@@H](NC(=O)[C@@H](C)O[C@H]1[C@H](O[C@@H]2O[C@H](CO)[C@@H](O)[C@H](O)[C@H]2NC(C)=O)[C@@H](CO)OC(O)[C@@H]1NC(C)=O)[C@@H](C)CC)C(C)C)[C@@H](C)O)[C@@H](C)CC)C(=O)N[C@@H](CCC(=O)O)C(=O)N[C@@H](CCC(=O)O)C(N)=O (stereo partly drawn) [BIO-3] |
| < 500 | CC[C@H](C)[C@H](NC(=O)[C@@H](NC(=O)[C@@H](NC(=O)[C@H](Cc1c[nH]cn1)NC(=O)[C@@H](NC(C)=O)C(C)C)C(C)C)[C@@H](C)O)C(=O)N1CCC[C@H]1C(=O)N[C@@H](C)C(=O)N[C@@H](CC(=O)O)C(=O)N[C@@H](CC(C)C)C(=O)N[C@@H](Cc1ccc(O)cc1)C(=O)N[C@@H](CCC(=O)O)C(=O)N[C@@H](Cc1c[nH]c2ccccc12)C(=O)N[C@H](C(=O)N[C@@H](CCCNC(=N)N)C(=O)N[C@@H](CCCNC(=N)N)C(N)=O)C(C)C [SEQ ID NO: 118] (Ac-VHVTIPADLYEWVRR-NH2) |
